Assay type in all cases: biochemical, Escherichia coli
Data set [1] deals with T1, CMY-2 (Klebsiella pneumoniae, UniProt Q48434).
T1 construct: all CMY-2 variant genes encoding the mature enzyme without a signal peptide were cloned into the protein expression plasmid vector pET-30b; made in house; host or cells: E. coli BL21 (DE3), pET-30b
The data set can be described thus: Steady-state hydrolysis kinetics. The source says:
(§1) We tested the enzymes, CMY-2, two single mutants V211S (CMY-42) and N346Y, three double mutants A114E_N346Y, Q120K_N346Y, and V211S_N346Y, and the quadruplet mutant CMY-185 to elucidate the impact on the kinetic properties resulting from the four amino acid substitutions present in CMY-185 compared with CMY-2 ([8]). The steady-state kinetic parameters kcat and Km (or Ki app) for nitrocefin, cephalothin, ceftazidime, and cefiderocol and the inhibition parameters Ki app, k2/K, k−2, and koff for avibactam are summarized in Table 1. During the hydrolysis of nitrocefin, we observed the reduction of the initial velocity at concentrations above 50 µM particularly for the CMY-2 variants harboring the N346Y substitution. As this could have represented substrate inhibition, we then determined the kinetics parameters for nitrocefin using the Haldane equation ([16]). […] In addition, during the hydrolysis of cefiderocol by CMY-185, the initial velocities at a concentration range of 3.7–59.4 µM were similar.
(§2) The steady-state kinetics were carried out on a UV-Visible spectrometer (UV-1280, Shimadzu, Japan) in PBS pH 7.2 at 25°C with a constant amount of enzyme and varying concentrations of the substrates. We tested nitrocefin, cephalothin, ceftazidime, and cefiderocol as the substrates and avibactam as the inhibitor. The steady-state kinetics parameters Km and kcat were determined with the Michaelis-Menten equation. For poorly hydrolyzed substrates, the Km value was assumed to be the competitive inhibition constant (Ki app) value according to previous studies ([17], [19]). Inhibition parameter values of Ki app, k2/K, k−2, and koff for avibactam were determined using a method as described previously ([33]). Cephalothin was used as the reporter substrate for competitive inhibition experiments, and its concentration was fixed at 100 µM. […] Inverse steady-state initial velocities were plotted against the concentration of the competitive inhibitor agents, such as ceftazidime, cefiderocol, and avibactam. The data were analyzed by linear regression analysis of the Dixon plot, and Ki app (observed) was determined by dividing the y-intercept value by the slope of the line. It was then corrected to account for the affinity of cephalothin for each enzyme using the Equation (1): […]

Data set [2] deals with T2, CMY-2 variant A114E_N346Y (Klebsiella pneumoniae, UniProt Q48434, A134E/N366Y).
T2 construct: all CMY-2 variant genes encoding the mature enzyme without a signal peptide were cloned into the protein expression plasmid vector pET-30b; made in house; host or cells: E. coli BL21 (DE3), pET-30b
The data set can be described thus: Steady-state hydrolysis kinetics. The conditions noted are these: for Km / kcat: PBS pH 7.2, 25°C.
Text: as §1, §2

Data set [3] addresses T3, CMY-2 variant N346Y (Klebsiella pneumoniae, UniProt Q48434, N366Y).
T3 construct: all CMY-2 variant genes encoding the mature enzyme without a signal peptide were cloned into the protein expression plasmid vector pET-30b; made in house; host or cells: E. coli BL21 (DE3), pET-30b
The data set can be described thus: Steady-state hydrolysis kinetics. The conditions noted are these: for Km / kcat: PBS pH 7.2, 25°C.
Text: as §1, §2

In a further data set the target is T4, CMY-185 (Klebsiella pneumoniae, UniProt Q48434, A134E/N366Y/Q140K/V231S).
T4 construct: all CMY-2 variant genes encoding the mature enzyme without a signal peptide were cloned into the protein expression plasmid vector pET-30b; made in house; host or cells: E. coli BL21 (DE3), pET-30b
The data set can be described thus: Steady-state hydrolysis kinetics. Particulars: for Km / kcat: PBS pH 7.2, 25°C.
Text: as §1
(§3) The steady-state kinetics were carried out on a UV-Visible spectrometer (UV-1280, Shimadzu, Japan) in PBS pH 7.2 at 25°C with a constant amount of enzyme and varying concentrations of the substrates. We tested nitrocefin, cephalothin, ceftazidime, and cefiderocol as the substrates and avibactam as the inhibitor. The steady-state kinetics parameters Km and kcat were determined with the Michaelis-Menten equation. For poorly hydrolyzed substrates, the Km value was assumed to be the competitive inhibition constant (Ki app) value according to previous studies ([17], [19]). Inhibition parameter values of Ki app, k2/K, k−2, and koff for avibactam were determined using a method as described previously ([33]). Cephalothin was used as the reporter substrate for competitive inhibition experiments, and its concentration was fixed at 100 µM. The enzyme concentration was 1–10 nM. Inverse steady-state initial velocities were plotted against the concentration of the competitive inhibitor agents, such as ceftazidime, cefiderocol, and avibactam. The data were analyzed by linear regression analysis of the Dixon plot, and Ki app (observed) was determined by dividing the y-intercept value by the slope of the line. It was then corrected to account for the affinity of cephalothin for each enzyme using the Equation (1): […]

Data set [4] concerns the target T5, CMY-2 variant Q120K_N346Y (Klebsiella pneumoniae, UniProt Q48434, N366Y/Q140K).
T5 construct: all CMY-2 variant genes encoding the mature enzyme without a signal peptide were cloned into the protein expression plasmid vector pET-30b; made in house; host or cells: E. coli BL21 (DE3), pET-30b
The data set can be described thus: Steady-state hydrolysis kinetics. Particulars: for Km / kcat: PBS pH 7.2, 25°C.
Text: as §1, §3

The target of data set [5] is T6, CMY-2 variant V211S_N346Y (Klebsiella pneumoniae, UniProt Q48434, N366Y/V231S).
T6 construct: all CMY-2 variant genes encoding the mature enzyme without a signal peptide were cloned into the protein expression plasmid vector pET-30b; made in house; host or cells: E. coli BL21 (DE3), pET-30b
The experiment in a line: Steady-state hydrolysis kinetics. The conditions noted are these: V211S_N346Y; for Km / kcat: PBS pH 7.2, 25°C.
Text: as §1, §3

The target of the next data set is T7, V211S (CMY-42) (Klebsiella pneumoniae, UniProt Q48434, V231S).
T7 construct: all CMY-2 variant genes encoding the mature enzyme without a signal peptide were cloned into the protein expression plasmid vector pET-30b; made in house; host or cells: E. coli BL21 (DE3), pET-30b
The data set can be described thus: Steady-state hydrolysis kinetics. The conditions noted are these: for Km / kcat: PBS pH 7.2, 25°C.
Text: as §1, §3

For data set [6], the target named is T1, CMY-2. The data set can be described thus: Competitive inhibition of cephalothin hydrolysis and avibactam inhibition kinetics. The conditions noted are these: reporter substrate cephalothin 100 µM, Dixon plot, read-out: Ki app.
Text: as §1
(§4) The steady-state kinetics were carried out on a UV-Visible spectrometer (UV-1280, Shimadzu, Japan) in PBS pH 7.2 at 25°C with a constant amount of enzyme and varying concentrations of the substrates. We tested nitrocefin, cephalothin, ceftazidime, and cefiderocol as the substrates and avibactam as the inhibitor. The steady-state kinetics parameters Km and kcat were determined with the Michaelis-Menten equation. For poorly hydrolyzed substrates, the Km value was assumed to be the competitive inhibition constant (Ki app) value according to previous studies ([17], [19]). Inhibition parameter values of Ki app, k2/K, k−2, and koff for avibactam were determined using a method as described previously ([33]). Cephalothin was used as the reporter substrate for competitive inhibition experiments, and its concentration was fixed at 100 µM. The enzyme concentration was 1–10 nM. Inverse steady-state initial velocities were plotted against the concentration of the competitive inhibitor agents, such as ceftazidime, cefiderocol, and avibactam. The data were analyzed by linear regression analysis of the Dixon plot, and Ki app (observed) was determined by dividing the y-intercept value by the slope of the line. It was then corrected to account for the affinity of cephalothin for each enzyme using the Equation (1):
(§5) (1) Ki app=Ki app (observed)/{1+[S]/Km (cephalothin)}
(§6) where [S] represents the concentration of the reporter substrate cephalothin, and Km (cephalothin) is the Km value of cephalothin for each enzyme.
(§7) The koff value was determined using a jump dilution assay. The enzyme and avibactam were mixed and preincubated at 25°C for 5 min. The concentration of avibactam depended on the enzyme and concentrations 10-fold higher from each Ki app (observed) value were adopted, which were determined based on the corrected competitive inhibition constants Ki app. Preincubated enzyme-avibactam mixture was then diluted 2,000-fold in the 100 µM cephalothin solution, and the hydrolysis of cephalothin was measured. Three independent measurements were performed for each enzyme and substrate or inhibitor combination. Curve fittings using linear or non-linear regression were performed with R 4.1.3 (R Core Team, 2022).

Data set [7] concerns the target T2, CMY-2 variant A114E_N346Y. The data set is described as above. Particulars: reporter substrate cephalothin 100 µM, Dixon plot, read-out: Ki app.
Text: as §1, §4, §5, §6, §7

The target in data set [8] is T3, CMY-2 variant N346Y. The data set is described as above. Particulars: N346Y; reporter substrate cephalothin 100 µM, Dixon plot; read-out: Ki app.
Text: as §1, §4, §5, §6, §7

Data set [9] concerns CC(=O)OCC1=C(C(=O)O)N2C(=O)[C@@H](NC(=O)Cc3cccs3)[C@H]2SC1. The data set can be described thus: Steady-state hydrolysis kinetics. The conditions noted are these: other: CMY-2, PBS pH 7.2, 25°C.
Text: as §1, §2

Data set [10] concerns O=C(Cc1cccs1)N[C@@H]1C(=O)N2C(C(=O)O)=C(/C=C/c3ccc([N+](=O)[O-])cc3[N+](=O)[O-])CS[C@H]12. The experiment in a line: Steady-state hydrolysis kinetics. The conditions noted are these: other: CMY-2, PBS pH 7.2, 25°C.
Text: as §1, §2

The mark [11] stands for this setting: substrate 100 µM, 100–200 nM enzyme.
Setting [12] is: substrate inhibition, Haldane equation.

The term Km denotes the substrate concentration at which the rate is half of its maximum. Usually kcat stands for the number of substrate molecules converted per active site and unit of time at saturation. `CC(C)(O/N=C(\C(=O)N[C@@H]1C(=O)N2C(C(=O)[O-])=C(C[n+]3ccccc3)CS[C@H]12)c1csc(N)n1)C(=O)O` [Ceftazidime, ceftazidime]: the hydrolysis entry (on CMY-2 [1] (setting [11]); in [2] (setting [11]); on CMY-2 variant N346Y [3] (setting [11])) was “no apparent hydrolysis” each time. Further, the Km amounted to 2.2 ± 0.3 µM at CMY-185, 5.3 ± 0.5 µM in data set [4], 37 ± 2 µM in data set [5] and 74 ± 10 µM at V211S (CMY-42). Further, the kcat came out at 0.1 ± 0.0 s⁻¹ at CMY-185, 0.077 ± 0.003 s⁻¹ in [4], 0.3 ± 0.0 s⁻¹ in [5] and 1.5 ± 0.2 s⁻¹ on V211S (CMY-42). In addition, the Ki on CMY-2 [6] worked out at 0.7 ± 0.1 µM; in data set [7], 0.3 µM; on CMY-2 variant N346Y [8] it was 0.7 ± 0.2 µM.

With `O=C(Cc1cccs1)N[C@@H]1C(=O)N2C(C(=O)O)=C(/C=C/c3ccc([N+](=O)[O-])cc3[N+](=O)[O-])CS[C@H]12` [Nitrocefin, nitrocefin], the Ki on CMY-2 [1] (setting [12]) worked out at 160 µM; in data set [2] (setting [12]) it was 68 ± 37 µM; at CMY-2 variant N346Y [3] (setting [12]), 87 ± 25 µM; at CMY-185 (setting [12]), 18 ± 13 µM; in [4] (setting [12]), 14 ± 12 µM; in data set [5] (setting [12]), 100 µM. This compound also displayed a Ki on V211S (CMY-42) (setting [12]) of 130 µM. The Km in data set [2] turned out to be 16 ± 4 µM; at CMY-2 variant N346Y [3] it was 25 ± 3 µM; at CMY-185 it was 39 ± 24 µM; in data set [4], 50 ± 40 µM; in data set [5], 35 ± 10 µM; at V211S (CMY-42), 29 ± 12 µM. The turnover number (kcat) in data set [2] is 57 ± 10 s⁻¹; on CMY-2 variant N346Y [3], 61 ± 5 s⁻¹; at CMY-185, 17 ± 9 s⁻¹; in data set [4], 120 ± 90 s⁻¹; in [5], 85 ± 18 s⁻¹; at V211S (CMY-42), 320 ± 102 s⁻¹.

For `CC(=O)OCC1=C(C(=O)O)N2C(=O)[C@@H](NC(=O)Cc3cccs3)[C@H]2SC1` [Cephalothin, cephalothin], the Km in data set [2] came to 1.4 ± 0.1 µM; on CMY-2 variant N346Y [3] it was 3.9 ± 0.1 µM; on CMY-185, 19 ± 1 µM; in data set [4], 18 ± 3 µM; in data set [5] it was 4.4 ± 0.3 µM; on V211S (CMY-42) it was 7.5 ± 1.1 µM. Besides, the kcat in data set [2] came out at 3.3 ± 0.1 s⁻¹; on CMY-2 variant N346Y [3], 18 ± 7 s⁻¹; on CMY-185 it was 14 ± 1 s⁻¹; in data set [4], 42 ± 5 s⁻¹; in data set [5], 9.6 ± 0.2 s⁻¹; on V211S (CMY-42) it was 83 ± 7 s⁻¹.

Usually kcat/Km stands for the second-order rate constant that governs catalysis at low substrate concentration. For the compound CMY-2 (Klebsiella pneumoniae), in [9], the Km came to 4.1 ± 0.3 µM, the kcat is 54 ± 0.8 s⁻¹ and the kcat/Km was found to be 1.3e+07 ± 1e+06 M⁻¹ s⁻¹. In [10], the Km stood at 17 ± 5 µM, the kcat was 240 ± 50 s⁻¹ and the kcat/Km was determined as 1.4e+07 ± 5e+06 M⁻¹ s⁻¹.

(Values after paper PMC10865806, “Structural insights into the molecular mechanism of high-level ceftazidime–avibactam resistance conferred by CMY-185” (mBio, 2024).)
